# From patent US20080261898A1, “COMPOSITION AND METHOD FOR CANCER TREATMENT AND PREVENTION” (priority 2007, published 2008)
# Experiments:
# [1] = tested on: VEGF RNA; experiment: VEGF RNA expression in xenograft tumor samples, RT-PCR; type: in vivo, mouse; conditions: 30 days treatment
# Protocol: (§1) 8-12 week old athymic nude mice (Jackson Laboratories, Bar Harbor, Me., US) were randomly assigned to Control (n=10) and Treatment (n=10) groups. Tumor xenografts were generated by injecting DU-145 cells (4×10^6) subcutaneously into the mice (Day 1). 1 mg/kg body weight of AC620 or PBS (Control) was administrated to the mice by subcutaneous injection starting at the time of tumor implantation (Day 1) and the mice were treated twice a week. Tumors were measured periodically. At Day 30, the mice were sacrificed. Half of each tumor was processed for immunohistochemical analysis and the other half was frozen for subsequent protein and RNA analysis.
# Xenograft mouse model was generated and AC620 or PBS (Control) was administrated to the transplanted mice for 30 days as described above. After the mice were sacrificed, immunohistochemical analysis of the tumor samples was performed using VEGF and VEGF R2 antibodies with a semi-automatic system Ventana ES (Ventana Inc, Tucson, Ariz.). The specimens were viewed with an Olympus BX51 microscope. Expression of VEGF in tumor samples at RNA level was measured by RT-PCR.
# [2] = tested on: DU-145 cells; experiment: Apoptosis, Annexin V flow cytometry, DU-145 cells; type: cell-based, human; conditions: 72 hr
# Protocol: (§2) AC620 was incubated with DU-145 cells and LNCaP cells at various concentrations (0, 0.1, 0.5, 1, 5 μM) for 72 hr. The effect of AC620 on apoptosis of DU-145 cells and LNCaP cells was assessed. The cells were washed in 1×PBS and resuspended in binding buffer (0.01M Hepes pH 7.4, 0.14M NaCl, 2.5 mM CaCl2), stained with Annexin V conjugated with APC (Pharmingen) and then subjected to flow cytometry analysis using FACS Caliber (BD Biosciences, San Jose, Calif.).
# [3] = tested on: VEGF Receptor I (VEGF R1); experiment: VEGF R1 expression in DU-145 cells, immunoblotting; type: cell-based, human; conditions: 0.1, 0.5, 1 μM, 72 hr
# Protocol: DU-145 cells were treated with AC620 at various concentrations (0, 0.1, 0.5, 1 μM) for 72 hr. After 72 hr treatment, cell lysates were collected and immunoblotting was performed. The membranes were probed with primary antibodies against VEGF Receptor I (VEGF R1) and VEGF Receptor II (VEGF R2) and actin (Santa Cruz Biotechnology, Santa Cruz, Calif.) followed by horseradish peroxidase (HRP)-conjugated secondary antibodies and visualized using the Enhanced Chemi-Luminescence detection system (ECL) and ECL films.
# [4] = tested on: p21; experiment: p21 expression in xenograft tumor samples, immunoblotting; type: in vivo, mouse
# Protocol: as §1
# (§3) Xenograft mouse model was generated and AC620 or PBS (Control) was administrated to the transplanted mice for 30 days as described above. After the mice were sacrificed, immunoblotting analysis of the tumor samples was performed using Bcl-2 and p21 antibodies as described above.
# [5] = tested on: Bcl-2; experiment: Bcl-2 expression in xenograft tumor samples, immunoblotting; type: in vivo, mouse
# Protocol: as §1, §3
# [6] = tested on: DU-145 cells; experiment: Viable cells, Annexin-V staining and flow cytometry, DU-145 cells; type: cell-based, human; conditions: 72 hr
# Protocol: AC620 was incubated with DU-145 cells, LNCaP cells and primary human prostate endothelial cells at high concentrations (0, 5, 100, 500, 1000 μM) for 72 hr. The number of viable cells was measured by Annexin-V staining followed by flow cytometry analysis.
# [7] = tested on: LNCaP cells; experiment: Apoptosis, Annexin V flow cytometry, LNCaP cells; type: cell-based, human; conditions: 72 hr
# Protocol: as §2
# [8] = tested on: DU-145 cells; experiment: BrdU based cell proliferation assay, DU-145 cells; design: species or system human
# Protocol: (§4) AC620 was incubated with hormone-refractory prostate cancer cell line DU-145 cells and hormone-responsive prostate cancer cell line LNCaP cells at various concentrations (0, 0.1, 0.5, 1, 5 μM) for 72 hr. LNCaP cells were maintained in RPMI 1640 medium (PAA Laboratories, Pashing, Austria) supplemented with 10% fetal calf serum (FCS) (Sigma, St. Louis, Mo.). The effect of AC620 on proliferation of DU-145 cells and LNCaP cells was determined by using a non-radioactive BrdU based cell proliferation assay kit (Roche, Switzerland) according to manufacturer's protocol. BrdU incorporation into the cellular DNA was determined by measuring the absorbance at 450 nm and 690 nm on an ELISA plate reader.
# AC620 was incubated with hormone-refractory prostate cancer cell line DU-145 cells and hormone-responsive prostate cancer cell line LNCaP cells at 0 (Control) and 5 μM for 24, 48 and 72 hr. The effect of AC620 on proliferation of DU-145 cells and LNCaP cells was determined by using a non-radioactive BrdU based cell proliferation assay kit (Roche, Switzerland) according to manufacturer's protocol. BrdU incorporation into the cellular DNA was determined by measuring the absorbance at 450 nm and 690 nm on an ELISA plate reader.
# [9] = tested on: DU-145 tumor xenografts; experiment: Tumor growth in DU-145 xenograft mouse model; type: in vivo; conditions: for decrease of tumor size: athymic nude mice, DU-145 xenograft
# Protocol: as §1
# [10] = tested on: CDK1; experiment: CDK1 expression in xenograft tumor samples, immunoblotting; type: in vivo, mouse
# Protocol: as §1
# Xenograft mouse model was generated and AC620 or PBS (Control) was administrated to the transplanted mice for 30 days as described above. After the mice were sacrificed, immunoblotting analysis of the tumor samples was performed using CDK1 and CDK2 antibodies as described above.
# [11] = tested on: HT-29 cells; experiment: BrdU based cell proliferation assay, HT-29 cells; conditions: 72 hr
# Protocol: as §4
# AC620 was incubated with metastatic colorectal cancer cell line HT-29 cells at various concentrations (0, 0.1, 0.5, 1, 4 μM) for 72 hr. The effect of AC620 on proliferation of HT-29 cells was determined by using a non-radioactive, BrdU based cell proliferation assay as described above.
smiles,measurement,setting,value
CC1OC(OCC2OC(Oc3c(-c4ccc(O)c(O)c4)oc4cc(O)c(O)cc4c3=O)C(O)C(O)C2O)C(O)C(O)C1O (stereo not shown) [AC620],estimated decrease of VEGF RNA expression level in tumor samples,[1],~90%
same,"apoptosis increased, DU-145 cells",[2]; 0.1 μm,46%
same,"apoptosis increased, DU-145 cells",[2]; 0.5 μm,115%
same,"apoptosis increased, DU-145 cells",[2]; 1 μm,285%
same,"apoptosis increased, DU-145 cells",[2]; 5 μm,389%
same,change in VEGF R1 expression,[3],no change
same,p21 expression reduced in tumor samples,[4]; Treatment 1,0%
same,p21 expression reduced in tumor samples,[4]; Treatment 2,70%
same,p21 expression reduced in tumor samples,[4]; Treatment 3,60%
same,p21 expression reduced in tumor samples,[4]; Treatment 4,90%
same,estimated decrease of Bcl-2 expression in tumor samples,[5]; Treatment 1,~80%
same,estimated decrease of Bcl-2 expression in tumor samples,[5]; Treatment 2,> 95%
same,estimated decrease of Bcl-2 expression in tumor samples,[5]; Treatment 3,~90%
same,estimated decrease of Bcl-2 expression in tumor samples,[5]; Treatment 4,> 95%
same,viable DU-145 cells decreased,[6]; 5 μm,67%
same,viable DU-145 cells decreased,[6]; 100 μm,93%
same,viable DU-145 cells decreased,[6]; 500 μm,94%
same,viable DU-145 cells decreased,[6]; 1000 μm,97%
same,"apoptosis increased, LNCaP cells",[7]; 0.1 μm,46%
same,"apoptosis increased, LNCaP cells",[7]; 0.5 μm,81%
same,"apoptosis increased, LNCaP cells",[7]; 1 μm,154%
same,"apoptosis increased, LNCaP cells",[7]; 5 μm,177%
same,decrease in cell proliferation of DU-145 cells,"[8]; 5 μM, after 24 hr",6%
same,decrease in cell proliferation of DU-145 cells,"[8]; 5 μM, after 48 hrs",31%
same,decrease in cell proliferation of DU-145 cells,"[8]; 5 μM, after 72 hr (time study)",86%
same,decrease in cell proliferation of DU-145 cells,"[8]; 0.1 μm, 72 hr",37%
same,decrease in cell proliferation of DU-145 cells,"[8]; 0.5 μm, 72 hr",58%
same,decrease in cell proliferation of DU-145 cells,"[8]; 1 μm, 72 hr",72%
same,decrease in cell proliferation of DU-145 cells,"[8]; 5 μm, 72 hr (dose study)",84%
same,tumor growth compared to Control,"[9]; 1 mg/kg subcutaneous twice a week, P<0.03",significantly reduced
same,decrease of tumor size,"[9]; Day 19, 1 mg/kg subcutaneous twice a week",47%
same,decrease of tumor size,"[9]; Day 22, 1 mg/kg subcutaneous twice a week",37%
same,decrease of tumor size,"[9]; Day 25, 1 mg/kg subcutaneous twice a week",24%
same,decrease of tumor size,"[9]; Day 29, 1 mg/kg subcutaneous twice a week",13%
same,morphology of tumor samples compared to Control group,"[9]; immunohistochemical specimens, 30 days treatment",more differentiated morphology
same,reduction of CDK1 expression in tumor samples,[10]; Treatment 1,approximately 80%
same,reduction of CDK1 expression in tumor samples,[10]; Treatment 2,> 95%
same,reduction of CDK1 expression in tumor samples,[10]; Treatment 3,~90%
same,reduction of CDK1 expression in tumor samples,[10]; Treatment 4,approximately 80%
same,"cell proliferation decreased, HT-29 cells",[11]; 0.1 μm,0%
same,"cell proliferation decreased, HT-29 cells",[11]; 0.5 μm,5%
same,"cell proliferation decreased, HT-29 cells",[11]; 1 μm,46%
same,"cell proliferation decreased, HT-29 cells",[11]; 4 μm,62%
